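1) Cells in 96-well plates. 2) Compound, 48 h, 5 concentrations. 3) Linear interpolation between surrounding doses. 4) Unreached endpoint = highest concentration. Abbreviation: GI50, concentration required for 50% inhibition of growth.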 Calls of active or inactive are those of the source. Cut-off read from the data, not from the text of the source: active = GI50 up to about 1.1 µM and inactive = higher.
Tests used:
Assay in all cases: DTP human tumour cell line panel, 48 h
[1] = test system: SW-620
[2] = test system: UACC-257
[3] = test system: M19-MEL
[4] = test system: SK-MEL-2
[5] = test system: SNB-75
[6] = test system: HOP-62
[7] = test system: SNB-19
[8] = test system: EKVX
[9] = test system: DMS-114
[10] = test system: SNB-78
[11] = test system: TK-10
[12] = test system: XF498
[13] = test system: CAKI-1
[14] = test system: HOP-18
[15] = test system: 786-0
[16] = test system: SF-539
[17] = test system: COLO 205
[18] = test system: RPMI-8226
[19] = test system: A498
[20] = test system: SK-MEL-28
[21] = test system: NCI-H23
[22] = test system: OVCAR-8
[23] = test system: K562
[24] = test system: HOP-92
[25] = test system: HCT-15
[26] = test system: KM-20L2
[27] = test system: SR
[28] = test system: IGROV-1
[29] = test system: SK-OV-3
[30] = test system: ACHN
[31] = test system: NCI-H522
[32] = test system: M14
[33] = test system: Malme-3M
[34] = test system: U-251
[35] = test system: SN12C
[36] = test system: SF-268
[37] = test system: CCRF-CEM
[38] = test system: A549
[39] = test system: OVCAR-5
[40] = test system: OVCAR-3
[41] = test system: SF-295
[42] = test system: DMS-273
[43] = test system: SK-MEL-5
[44] = test system: NCI-H226
[45] = test system: HCT-116
[46] = test system: NCI-H460
[47] = test system: HL-60
[48] = test system: OVCAR-4
[49] = test system: DLD-1
[50] = test system: LOX IMVI
[51] = test system: KM12
[52] = test system: UACC-62
[53] = test system: HT-29
[54] = test system: HCC 2998
[55] = test system: LXFL 529
[56] = test system: RXF 393
[57] = test system: UO-31
[58] = test system: MOLT-4

Measured: GI50

CC(=O)OCC(=O)[C@@]1(O)CC[C@H]2[C@@H]3CCC4=CC(=O)[C@H](C)C[C@]4(C)[C@H]3[C@@H](O)C[C@@]21C
> 100 µM: [25]
inactive: [1] > 100 µM | [2] > 100 µM | [3] > 100 µM | [4] > 100 µM | [5] > 100 µM | [6] > 100 µM | [7] > 100 µM | [8] > 100 µM | [9] > 100 µM | [10] 9.77 µM | [11] > 100 µM | [12] > 100 µM | [13] > 100 µM | [14] > 100 µM | [15] > 100 µM | [16] > 100 µM | [17] > 100 µM | [18] > 100 µM | [19] > 100 µM | [20] > 100 µM | [21] > 100 µM | [22] > 100 µM | [23] > 100 µM | [24] > 100 µM | [26] > 100 µM | [27] > 100 µM | [28] > 100 µM | [29] > 100 µM | [30] > 100 µM | [31] > 100 µM | [32] > 100 µM | [33] > 100 µM | [34] > 100 µM | [35] > 100 µM | [36] > 100 µM | [37] > 100 µM | [38] > 100 µM | [39] > 100 µM | [40] > 100 µM | [41] > 100 µM | [42] > 100 µM | [43] > 100 µM | [44] > 100 µM | [45] > 100 µM | [46] > 100 µM | [47] > 100 µM | [48] > 100 µM | [49] > 100 µM | [50] > 100 µM | [51] > 100 µM | [52] > 100 µM | [53] > 100 µM | [54] > 100 µM

COC(=O)[C@H](Cc1ccccc1)NC(=O)/C(=C/C(C)C)NC(=O)[C@H](CCSC)NC=O
> 100 µM: [25]
inactive: [1] > 100 µM | [2] > 100 µM | [3] > 100 µM | [4] > 100 µM | [5] > 100 µM | [6] > 100 µM | [7] > 100 µM | [8] > 100 µM | [9] > 100 µM | [11] > 100 µM | [12] > 100 µM | [13] > 100 µM | [14] > 100 µM | [15] > 100 µM | [16] > 100 µM | [17] > 100 µM | [18] > 100 µM | [19] > 100 µM | [20] > 100 µM | [21] > 100 µM | [22] > 100 µM | [23] > 100 µM | [24] > 100 µM | [26] > 100 µM | [55] > 100 µM | [27] > 100 µM | [28] > 100 µM | [29] > 100 µM | [30] > 100 µM | [31] > 100 µM | [32] > 100 µM | [34] > 100 µM | [35] > 100 µM | [36] > 100 µM | [56] > 100 µM | [37] > 100 µM | [38] > 100 µM | [40] > 100 µM | [41] > 100 µM | [42] > 100 µM | [57] > 100 µM | [43] > 100 µM | [44] > 100 µM | [45] > 100 µM | [46] > 100 µM | [47] > 100 µM | [48] > 100 µM | [49] > 100 µM | [50] > 100 µM | [51] > 100 µM | [52] > 100 µM | [53] > 100 µM | [54] > 100 µM | [58] > 100 µM

O=C(c1ccc(Cl)cc1)C1OC12C(=O)Nc1c(Cl)cc(Cl)cc12 (centres undefined)
42.1 µM: [25]
inactive: [1] 40 µM | [2] 26.9 µM | [4] 67.5 µM | [5] 25.9 µM | [6] > 100 µM | [7] 54.3 µM | [8] 19.8 µM | [11] 51.2 µM | [12] 15.3 µM | [14] 36.2 µM | [15] 49 µM | [16] 75 µM | [18] 14.9 µM | [19] > 100 µM | [20] 94 µM | [21] 30.1 µM | [22] 23 µM | [23] 22.3 µM | [26] 67.5 µM | [30] 92.9 µM | [33] 71.9 µM | [34] 76.7 µM | [35] 54 µM | [36] 51.9 µM | [37] 22.4 µM | [38] 49.9 µM | [39] > 100 µM | [40] 21.2 µM | [41] 46.3 µM | [42] 65.5 µM | [57] 63.7 µM | [43] 37.5 µM | [44] 28.3 µM | [46] 50.8 µM | [49] 87.3 µM | [50] 39.4 µM | [51] 48.6 µM | [53] 41.2 µM | [54] > 100 µM
